Results as given in patent publication US11981658B2, “Substituted aminopyridine compounds as EGFR inhibitors” (YUHAN CORPORATION, priority 2021, dated 2024).
Like-named read-outs stand apart in the source and are kept apart here.

What was measured:
EGFR wildtype (WT) = EGFR wildtype (WT) (Homo sapiens, UniProt P00533); experiment: Biochemical EGFR kinase inhibition assay (Lance Ultra TR-FRET), wildtype
Procedure, shortened: (§1)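 Enzyme reactions lasted 1 hour at room temperature with test compounds between 0.003 and 10 μM, followed by 10 mM EDTA quench.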

EGFR Del19/C797S = EGFR Del19/C797S (Homo sapiens, UniProt P00533, C797S/DEL746-750); experiment: Biochemical EGFR kinase inhibition assay (Lance Ultra TR-FRET), double mutant del19/C797S
Procedure, shortened: as §1

EGFR L858R/T790M/C797S = EGFR L858R/T790M/C797S (Homo sapiens, UniProt P00533, C797S/L858R/T790M); experiment: Biochemical EGFR kinase inhibition assay (Lance Ultra TR-FRET), triple mutant L858R/T790M/C797S
Procedure, shortened: as §1

EGFR Del19/T790M/C797S = EGFR Del19/T790M/C797S (Homo sapiens, UniProt P00533, C797S/DEL746-750/T790M); experiment: Biochemical EGFR kinase inhibition assay (Lance Ultra TR-FRET), triple mutant del19/T790M/C797S
Procedure, shortened: as §1

EGFR L858R/C797S = EGFR L858R/C797S (Homo sapiens, UniProt P00533, C797S/L858R); experiment: Biochemical EGFR kinase inhibition assay (Lance Ultra TR-FRET), double mutant L858R/C797S
Procedure, shortened: as §1

[1] = Km ATP, read-out: IC50 WT (nM) Km ATP
[2] = IC50 Del19/C797S (nM), 100 μM ATP
[3] = Km ATP, read-out: IC50 Del19/C797S (nM) Km ATP
[4] = IC50 L858R/T790M/C797S (nM), 100 μM ATP
[5] = Km ATP, read-out: IC50 L858R/T790M/C797S (nM) Km ATP
[6] = IC50 Del19/T790M/C797S (nM), 100 μM ATP
[7] = Km ATP, read-out: IC50 Del19/T790M/C797S (nM) Km ATP
[8] = IC50 L858R/C797S (nM), 100 μM ATP
[9] = Km ATP, read-out: IC50 L858R/C797S (nM) Km ATP

Chain of EGFR Del19/C797S (P00533 with tags, fused parts or gaps DEL746-750/C797S): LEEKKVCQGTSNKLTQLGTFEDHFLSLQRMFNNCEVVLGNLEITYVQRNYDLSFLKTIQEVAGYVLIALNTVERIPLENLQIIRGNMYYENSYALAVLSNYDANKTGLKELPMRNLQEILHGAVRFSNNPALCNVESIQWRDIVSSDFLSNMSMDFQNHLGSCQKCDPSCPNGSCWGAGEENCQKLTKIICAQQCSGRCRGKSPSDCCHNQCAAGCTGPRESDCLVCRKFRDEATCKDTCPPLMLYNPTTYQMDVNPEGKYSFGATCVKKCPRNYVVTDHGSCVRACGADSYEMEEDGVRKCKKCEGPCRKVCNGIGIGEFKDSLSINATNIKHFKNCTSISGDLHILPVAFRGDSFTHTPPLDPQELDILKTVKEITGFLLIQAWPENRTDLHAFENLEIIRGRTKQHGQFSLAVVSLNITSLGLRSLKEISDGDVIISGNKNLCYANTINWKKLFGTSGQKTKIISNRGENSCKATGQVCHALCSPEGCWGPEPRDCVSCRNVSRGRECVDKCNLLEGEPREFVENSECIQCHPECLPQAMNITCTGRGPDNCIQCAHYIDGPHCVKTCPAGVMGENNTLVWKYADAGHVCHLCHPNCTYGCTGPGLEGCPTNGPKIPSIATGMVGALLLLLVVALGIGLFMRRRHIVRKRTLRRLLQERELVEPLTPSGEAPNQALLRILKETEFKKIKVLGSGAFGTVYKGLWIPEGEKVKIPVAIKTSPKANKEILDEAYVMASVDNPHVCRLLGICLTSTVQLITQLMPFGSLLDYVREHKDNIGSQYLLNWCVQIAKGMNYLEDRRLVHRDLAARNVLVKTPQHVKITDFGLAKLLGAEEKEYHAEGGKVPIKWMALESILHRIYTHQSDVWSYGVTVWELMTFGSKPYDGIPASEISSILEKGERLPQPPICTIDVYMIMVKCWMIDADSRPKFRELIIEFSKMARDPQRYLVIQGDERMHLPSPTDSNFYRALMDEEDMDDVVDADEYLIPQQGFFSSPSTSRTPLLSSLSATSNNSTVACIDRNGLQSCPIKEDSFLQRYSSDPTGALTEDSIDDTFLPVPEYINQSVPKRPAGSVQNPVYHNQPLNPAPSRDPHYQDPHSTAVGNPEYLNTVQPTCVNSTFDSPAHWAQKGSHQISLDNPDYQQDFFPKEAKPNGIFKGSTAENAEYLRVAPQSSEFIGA
Chain of EGFR Del19/T790M/C797S (P00533 with tags, fused parts or gaps DEL746-750/T790M/C797S): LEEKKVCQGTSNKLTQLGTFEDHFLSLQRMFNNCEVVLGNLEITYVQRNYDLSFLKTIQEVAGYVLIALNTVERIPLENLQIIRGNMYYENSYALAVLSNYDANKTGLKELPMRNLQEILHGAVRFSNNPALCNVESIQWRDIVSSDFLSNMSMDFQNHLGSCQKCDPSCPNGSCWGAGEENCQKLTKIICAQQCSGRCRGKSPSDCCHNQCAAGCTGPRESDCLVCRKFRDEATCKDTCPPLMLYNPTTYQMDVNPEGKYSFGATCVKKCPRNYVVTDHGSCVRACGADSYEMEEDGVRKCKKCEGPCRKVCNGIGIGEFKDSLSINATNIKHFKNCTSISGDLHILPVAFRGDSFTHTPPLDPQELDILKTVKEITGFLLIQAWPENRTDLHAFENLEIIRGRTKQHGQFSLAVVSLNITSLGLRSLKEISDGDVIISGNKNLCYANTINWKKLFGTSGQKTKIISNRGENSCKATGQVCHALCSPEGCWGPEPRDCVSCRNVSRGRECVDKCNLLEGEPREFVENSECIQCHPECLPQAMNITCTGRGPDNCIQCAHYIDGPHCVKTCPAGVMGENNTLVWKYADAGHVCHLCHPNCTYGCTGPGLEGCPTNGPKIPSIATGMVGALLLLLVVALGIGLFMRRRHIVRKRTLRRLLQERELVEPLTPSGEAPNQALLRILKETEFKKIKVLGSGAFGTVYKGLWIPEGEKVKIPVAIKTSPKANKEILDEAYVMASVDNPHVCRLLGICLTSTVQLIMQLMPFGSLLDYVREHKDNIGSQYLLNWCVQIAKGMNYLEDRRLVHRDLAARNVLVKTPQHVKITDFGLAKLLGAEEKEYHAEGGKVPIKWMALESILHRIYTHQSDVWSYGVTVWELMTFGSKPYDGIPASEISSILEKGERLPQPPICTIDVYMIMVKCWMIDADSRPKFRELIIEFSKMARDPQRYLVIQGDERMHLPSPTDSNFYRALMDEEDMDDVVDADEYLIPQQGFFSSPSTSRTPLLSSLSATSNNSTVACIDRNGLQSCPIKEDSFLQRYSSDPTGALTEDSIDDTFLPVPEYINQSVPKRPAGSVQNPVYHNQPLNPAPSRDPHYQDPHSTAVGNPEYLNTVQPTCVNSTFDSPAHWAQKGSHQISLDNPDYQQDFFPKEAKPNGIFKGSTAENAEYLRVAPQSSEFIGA
Chain of EGFR L858R/T790M/C797S (P00533 25-1210 T790M/C797S/L858R): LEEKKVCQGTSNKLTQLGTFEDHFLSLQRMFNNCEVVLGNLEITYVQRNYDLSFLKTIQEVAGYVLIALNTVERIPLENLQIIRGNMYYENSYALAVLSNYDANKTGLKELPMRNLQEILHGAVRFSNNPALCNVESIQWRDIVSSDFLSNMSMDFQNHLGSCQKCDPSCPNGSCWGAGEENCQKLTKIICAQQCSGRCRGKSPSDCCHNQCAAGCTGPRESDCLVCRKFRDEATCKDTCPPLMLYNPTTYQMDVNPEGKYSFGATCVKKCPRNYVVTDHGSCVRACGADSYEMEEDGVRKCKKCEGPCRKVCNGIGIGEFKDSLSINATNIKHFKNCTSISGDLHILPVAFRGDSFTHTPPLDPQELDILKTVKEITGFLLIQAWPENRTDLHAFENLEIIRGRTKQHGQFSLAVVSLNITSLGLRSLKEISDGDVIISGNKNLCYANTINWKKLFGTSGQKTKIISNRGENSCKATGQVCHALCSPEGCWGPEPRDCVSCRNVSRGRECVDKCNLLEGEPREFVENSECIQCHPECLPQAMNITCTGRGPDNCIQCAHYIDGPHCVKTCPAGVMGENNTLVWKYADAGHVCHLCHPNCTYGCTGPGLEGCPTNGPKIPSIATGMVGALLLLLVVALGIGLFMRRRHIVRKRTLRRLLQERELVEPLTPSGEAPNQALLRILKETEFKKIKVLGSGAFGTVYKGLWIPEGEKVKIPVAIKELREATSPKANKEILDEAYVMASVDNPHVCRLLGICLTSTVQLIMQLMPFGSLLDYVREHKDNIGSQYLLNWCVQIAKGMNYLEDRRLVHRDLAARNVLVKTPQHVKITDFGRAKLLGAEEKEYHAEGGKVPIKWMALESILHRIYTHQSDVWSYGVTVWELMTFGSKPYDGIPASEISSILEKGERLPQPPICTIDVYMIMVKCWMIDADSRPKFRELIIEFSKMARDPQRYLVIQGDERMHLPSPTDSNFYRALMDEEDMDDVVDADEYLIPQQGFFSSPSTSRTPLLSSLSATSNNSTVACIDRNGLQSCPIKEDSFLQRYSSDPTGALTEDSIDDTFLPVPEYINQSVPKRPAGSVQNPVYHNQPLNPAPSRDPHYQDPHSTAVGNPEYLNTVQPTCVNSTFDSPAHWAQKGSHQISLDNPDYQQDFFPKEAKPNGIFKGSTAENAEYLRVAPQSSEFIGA
Chain of EGFR L858R/C797S (P00533 25-1210 C797S/L858R): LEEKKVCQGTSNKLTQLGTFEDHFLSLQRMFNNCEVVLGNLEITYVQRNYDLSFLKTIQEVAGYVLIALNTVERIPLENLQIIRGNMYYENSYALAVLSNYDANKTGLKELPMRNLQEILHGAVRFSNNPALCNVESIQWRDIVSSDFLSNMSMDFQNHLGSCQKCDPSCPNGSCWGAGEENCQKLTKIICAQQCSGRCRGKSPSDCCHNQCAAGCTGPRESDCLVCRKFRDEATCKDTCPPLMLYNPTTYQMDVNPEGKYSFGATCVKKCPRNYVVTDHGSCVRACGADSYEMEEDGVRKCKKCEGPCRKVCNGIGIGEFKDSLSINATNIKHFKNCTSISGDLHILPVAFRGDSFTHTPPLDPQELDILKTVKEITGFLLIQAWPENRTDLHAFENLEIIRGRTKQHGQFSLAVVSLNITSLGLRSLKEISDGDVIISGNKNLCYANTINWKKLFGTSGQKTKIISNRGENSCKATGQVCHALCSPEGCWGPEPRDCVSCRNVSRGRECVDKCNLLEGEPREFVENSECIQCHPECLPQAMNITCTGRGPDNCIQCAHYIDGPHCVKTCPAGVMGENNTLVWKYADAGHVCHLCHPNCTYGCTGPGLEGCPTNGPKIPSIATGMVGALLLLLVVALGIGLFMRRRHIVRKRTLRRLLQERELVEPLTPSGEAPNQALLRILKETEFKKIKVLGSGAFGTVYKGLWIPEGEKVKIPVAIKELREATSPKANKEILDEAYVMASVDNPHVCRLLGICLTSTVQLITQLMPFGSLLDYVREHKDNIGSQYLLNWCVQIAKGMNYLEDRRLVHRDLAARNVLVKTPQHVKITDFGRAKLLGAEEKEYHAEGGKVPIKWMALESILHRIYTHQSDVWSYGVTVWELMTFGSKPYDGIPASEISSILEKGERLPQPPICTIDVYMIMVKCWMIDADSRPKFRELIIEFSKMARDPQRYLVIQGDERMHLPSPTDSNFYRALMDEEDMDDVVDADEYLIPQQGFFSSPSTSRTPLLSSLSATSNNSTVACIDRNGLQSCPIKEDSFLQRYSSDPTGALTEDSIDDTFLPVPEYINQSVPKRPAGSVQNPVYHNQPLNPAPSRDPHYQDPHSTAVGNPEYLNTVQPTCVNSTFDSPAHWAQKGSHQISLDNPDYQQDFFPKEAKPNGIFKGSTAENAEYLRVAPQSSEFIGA

Row | Structure (SMILES) | IC50 (EGFR wildtype (WT); IC50 WT (nM), 100 μM ATP) [nM] | IC50 (EGFR wildtype (WT); [1]) [nM] | IC50 (EGFR Del19/C797S; [2]) [nM] | IC50 (EGFR Del19/C797S; [3]) [nM] | IC50 (EGFR L858R/T790M/C797S; [4]) [nM] | IC50 (EGFR L858R/T790M/C797S; [5]) [nM] | IC50 (EGFR Del19/T790M/C797S; [6]) [nM] | IC50 (EGFR Del19/T790M/C797S; [7]) [nM] | IC50 (EGFR L858R/C797S; [8]) [nM] | IC50 (EGFR L858R/C797S; [9]) [nM]
1 | CC(=O)N1CCC(n2cc(C#Cc3cnc(Nc4ccnc(-c5cnn(S(=O)(=O)C6CC6)c5)n4)cc3N3CCCC(CO)C3)cn2)CC1 (stereo not drawn) [Example 115, 1-(4-(4-((6-((2-(1-(Cyclopropylsulfonyl)-1H-pyrazol-4-yl)pyrimidin-4-yl)amino)-4-(3-(hydroxymethyl)piperidin-1-yl)pyridin-3-yl)ethynyl)-1H-pyrazol-1-yl)piperidin-1-yl)ethan-1-one] | > 10000 | 19.6 | 8.1 | 5.4 | 2.3 | 0.9 | 1.2 | 0.9 | 15.6 | 2.9
2 | CN(C)CCn1cc(C#Cc2cnc(Nc3ccnc(-c4cnn(S(=O)(=O)C5CC5)c4)n3)cc2N2CCC(C)(CO)CC2)cn1 [Example 116, (1-(2-((2-(1-(Cyclopropylsulfonyl)-1H-pyrazol-4-yl)pyrimidin-4-yl)amino)-5-((1-(2-(dimethylamino)ethyl)-1H-pyrazol-4-yl)ethynyl)pyridin-4-yl)-4-methylpiperidin-4-yl)methanol] | 143 | 1 | 0.6 | 0.3 | 0.3 | 0.2 | 0.4 | 0.3 | 1 | 0.2
3 | CN(C)CCn1cc(C#Cc2cnc(Nc3ccnc(-c4cnn(S(=O)(=O)C5CC5)c4)n3)cc2N2CCC(F)(CO)CC2)cn1 [Example 117, (1-(2-((2-(1-(Cyclopropylsulfonyl)-1H-pyrazol-4-yl)pyrimidin-4-yl)amino)-5-((1-(2-(dimethylamino)ethyl)-1H-pyrazol-4-yl)ethynyl)pyridin-4-yl)-4-fluoropiperidin-4-yl)methanol] | 1020 | 3.7 | 0.7 | 0.4 | 0.3 | 0.2 | 0.4 | 0.3 | 3.4 | 0.3
4 | CN(C)CCn1cc(C#Cc2cnc(Nc3ccnc(-c4cnn(S(=O)(=O)C5CC5)c4)n3)cc2N2CCCC(CO)C2)cn1 (stereo not drawn) [Example 118, (1-(2-((2-(1-(Cyclopropylsulfonyl)-1H-pyrazol-4-yl)pyrimidin-4-yl)amino)-5-((1-(2-(dimethylamino)ethyl)-1H-pyrazol-4-yl)ethynyl)pyridin-4-yl)piperidin-3-yl)methanol] | 2690 | 10.2 | 0.8 | 0.7 | 0.5 | 0.2 | 0.6 | 0.5 | 8.5 | 0.6
5 | CN(C)CCCn1cc(C#Cc2cnc(Nc3ccnc(-c4cnn(S(=O)(=O)C5CC5)c4)n3)cc2N2CCC(C)(CO)CC2)cn1 [Example 120, (1-(2-((2-(1-(Cyclopropylsulfonyl)-1H-pyrazol-4-yl)pyrimidin-4-yl)amino)-5-((1-(3-(dimethylamino)propyl)-1H-pyrazol-4-yl)ethynyl)pyridin-4-yl)-4-methylpiperidin-4-yl)methanol] | 212 | 1.6 | 0.8 | 0.5 | 0.5 | 0.3 | 0.7 | 0.7 | 1.3 | 0.3
6 | CN(C)CCCn1cc(C#Cc2cnc(Nc3ccnc(-c4cnn(S(=O)(=O)C5CC5)c4)n3)cc2N2CCC(F)(CO)CC2)cn1 [Example 121, (1-(2-((2-(1-(Cyclopropylsulfonyl)-1H-pyrazol-4-yl)pyrimidin-4-yl)amino)-5-((1-(3-(dimethylamino)propyl)-1H-pyrazol-4-yl)ethynyl)pyridin-4-yl)-4-fluoropiperidin-4-yl)methanol] | 783 | 3.1 | 0.5 | 0.3 | 0.3 | 0.1 | 0.3 | 0.3 | 4.1 | 0.3
7 | CN(C)CCCn1cc(C#Cc2cnc(Nc3ccnc(-c4cnn(S(=O)(=O)C5CC5)c4)n3)cc2N2CCCC(CO)C2)cn1 (stereo not drawn) [Example 122, (1-(2-((2-(1-(Cyclopropylsulfonyl)-1H-pyrazol-4-yl)pyrimidin-4-yl)amino)-5-((1-(3-(dimethylamino)propyl)-1H-pyrazol-4-yl)ethynyl)pyridin-4-yl)piperidin-3-yl)methanol] | 2780 | 7.8 | 0.8 | 0.6 | 0.5 | 0.2 | 0.5 | 0.4 | 11.8 | 0.5
8 | CN(C)CCCn1cc(C#Cc2cnc(Nc3ccnc(-c4cnn(S(=O)(=O)C5CC5)c4)n3)cc2N[C@H]2CC[C@@H](O)CC2)cn1 [Example 123, (1s,4s)-4-((2-((2-(1-(Cyclopropylsulfonyl)-1H-pyrazol-4-yl)pyrimidin-4-yl)amino)-5-((1-(3-(dimethylamino)propyl)-1H-pyrazol-4-yl)ethynyl)pyridin-4-yl)amino)cyclohexan-1-ol] | 1080 | 3.6 | 0.6 | 0.3 | 0.4 | 0.1 | 0.4 | 0.4 | 4.3 | 0.3
9 | Cn1cc(C#Cc2cnc(Nc3ccnc(-c4cnn(S(=O)(=O)C5CC5)c4)n3)cc2N2CCC(NCC3CC3)CC2)cn1 [Example 124, N-(4-(4-((Cyclopropylmethyl)amino)piperidin-1-yl)-5-((1-methyl-1H-pyrazol-4-yl)ethynyl)pyridin-2-yl)-2-(1-(cyclopropylsulfonyl)-1H-pyrazol-4-yl)pyrimidin-4-amine] | > 10000 |  | 26.3 |  | 2.6 |  | 3 |  | 154 | 
10 | CC(C)CCNC1CCN(c2cc(Nc3ccnc(-c4cnn(S(=O)(=O)C5CC5)c4)n3)ncc2C#Cc2cnn(C)c2)CC1 [Example 125, 2-(1-(Cyclopropylsulfonyl)-1H-pyrazol-4-yl)-N-(4-(4-(isopentylamino)piperidin-1-yl)-5-((1-methyl-1H-pyrazol-4-yl)ethynyl)pyridin-2-yl)pyrimidin-4-amine] | > 10000 |  | 34.2 |  | 5.6 |  | 5.6 |  | 330 | 
11 | Cn1cc(C#Cc2cnc(Nc3ccnc(-c4cnn(S(=O)(=O)C5CC5)c4)n3)cc2N2CCC(NCC(F)F)CC2)cn1 [Example 126, 2-(1-(Cyclopropylsulfonyl)-1H-pyrazol-4-yl)-N-(4-(4-((2,2-difluoroethyl)amino)piperidin-1-yl)-5-((1-methyl-1H-pyrazol-4-yl)ethynyl)pyridin-2-yl)pyrimidin-4-amine] | > 10000 | 35 | 1.6 | 1.4 | 0.9 | 0.3 | 1.7 | 0.6 | 11.5 | 1.8
12 | Cn1cc(C#Cc2cnc(Nc3ccnc(-c4cnn(S(=O)(=O)C5CC5)c4)n3)cc2N2CCC(NCCC(F)(F)F)CC2)cn1 [Example 127, 2-(1-(Cyclopropylsulfonyl)-1H-pyrazol-4-yl)-N-(5-((1-methyl-1H-pyrazol-4-yl)ethynyl)-4-(4-((3,3,3-trifluoropropyl)amino)piperidin-1-yl)pyridin-2-yl)pyrimidin-4-amine] | > 10000 |  | 6.9 |  | 1.8 |  | 2.8 |  | 45.7 | 
13 | Cn1cc(C#Cc2cnc(Nc3ccnc(-c4cnn(S(=O)(=O)C5CC5)c4)n3)cc2N2CCC(N3CC(F)(F)C3)CC2)cn1 [Example 128, 2-(1-(Cyclopropylsulfonyl)-1H-pyrazol-4-yl)-N-(4-(4-(3,3-difluoroazetidin-1-yl)piperidin-1-yl)-5-((1-methyl-1H-pyrazol-4-yl)ethynyl)pyridin-2-yl)pyrimidin-4-amine] | > 10000 |  | 29.5 |  | 4.8 |  | 7.1 |  | 73 | 
14 | Cn1cc(C#Cc2cnc(Nc3ccnc(-c4cnn(S(=O)(=O)C5CC5)c4)n3)cc2N2CCC(NCCF)CC2)cn1 [Example 129, 2-(1-(Cyclopropylsulfonyl)-1H-pyrazol-4-yl)-N-(4-(4-((2-fluoroethyl)amino)piperidin-1-yl)-5-((1-methyl-1H-pyrazol-4-yl)ethynyl)pyridin-2-yl)pyrimidin-4-amine] | > 10000 |  | 4.4 |  | 0.8 |  | 0.5 |  | 23.8 | 
15 | CNC1CCN(c2cc(Nc3ccnc(-c4cnn(S(=O)(=O)C5CC5)c4)n3)ncc2C#Cc2cnn(C)c2)CC1 [Example 130, 2-(1-(Cyclopropylsulfonyl)-1H-pyrazol-4-yl)-N-(5-((1-methyl-1H-pyrazol-4-yl)ethynyl)-4-(4-(methylamino)piperidin-1-yl)pyridin-2-yl)pyrimidin-4-amine] | > 10000 |  | 107 |  | 5.1 |  | 1.4 |  | 68.7 | 
